This is an account of results in patent US10902592B2, “Analysis of images of biological material” (Q-linea AB, priority 2016, dated 2021).

Molecules are shown by their SMILES.

Assay type in all cases: cell-based
One assay deals with P.aureginosa. As to the kind of experiment: Microscopy of P.aureginosa grown in presence of antibiotics (FIGS. 7e-g). To be noted: for morphological change of the pathogen: P.aureginosa grown for three hours in presence of the antibiotic, microphotographs. An excerpt: (§1) FIGS. 7a to 7j show the effect of antibiotics on the morphology of various pathogens. The microphotographs in a) to d) show E. coli grown for three hours either a) in absence of any antibiotics, b) and c) in presence of the antibiotic ceftazidime in different concentrations, and d) or in presence of the antibiotic meropenem. It is clear that the morphological change is not only dependent on the type of antibiotics but is also dose dependent. […] The strain of E. coli shown in these Figures is meropenem sensitive. The microphotographs in e) to g) show P.aureginosa grown for three hours either e) in absence of any antibiotics, f) in presence of the antibiotic ceftazidime or g) in presence of the antibiotic meropenem. […] The P.aureginosa strain shown is meropenem sensitive. The microphotographs of h) to j) show P. mirabilis grown for three hours either h) in absence of any antibiotics, i) in presence of the antibiotic ceftazidime or j) in presence of the antibiotic meropenem. […] The P. mirabilis strain shown is meropenem sensitive.

A further assay concerns P. mirabilis. Description: Microscopy of P. mirabilis grown in presence of antibiotics (FIGS. 7h-j). To be noted: for morphological change of the pathogen: P. mirabilis grown for three hours in presence of the antibiotic, microphotographs.
Text: as §1

The subject of a further assay is E. coli. As to the kind of experiment: Microscopy of E. coli grown in presence of antibiotics (FIGS. 7a-d). Particulars: for morphological change of the pathogen: E. coli grown for three hours in presence of the antibiotic, microphotographs.
Text: as §1

Regarding `CC(C)(O/N=C(\C(=O)N[C@@H]1C(=O)N2C(C(=O)[O-])=C(C[n+]3ccccc3)CS[C@H]12)c1csc(N)n1)C(=O)O` [ceftazidime], the “morphological change of the pathogen” value in the assay with P.aureginosa is ““cluster threads” instead of individual threads”; in the assay with P. mirabilis, “a combination of “swelling” and threads”; in the assay with E. coli it was “thread-like change in morphology”.
Take `C[C@@H](O)[C@H]1C(=O)N2C(C(=O)O)=C(S[C@@H]3CN[C@H](C(=O)N(C)C)C3)[C@H](C)[C@H]12` [meropenem]: the “morphological change of the pathogen” value in the assay with P.aureginosa was “the same morphological change occurs”; in the assay on P. mirabilis it was “the same morphological change occurs”; in the assay with E. coli, ““swelling” of the pathogen”. Besides, the “sensitivity of the strain shown to the antibiotic” value in the assay with P.aureginosa (P.aureginosa strain shown), in the assay on P. mirabilis (P. mirabilis strain shown) and in the assay on E. coli (E. coli strain shown in the Figures) was “sensitive” in each case.
